Test results from the supplement of paper PMC7840683.
Where a name gives a salt, the structure may show the parent alone.

System: HepaRG
Assay: LDH release cytotoxicity, % of total lysis control; higher = more cytotoxic
Conditions: 48 h
Method in brief: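 The CytoTox-ONE kit was used to read LDH in 50 µL spent medium as resorufin fluorescence on a Tecan Safire, with 0.1% Triton X added to total lysis wells. Beforehand, single-lot HepaRG cells on collagen I-coated 96-well plates had been exposed in duplicate for 48 h to eight-point half-log series (top 100 µM) in serum-free induction medium containing 0.5% DMSO. Percent cytotoxicity was normalized against on-plate vehicle and total lysis controls and averaged over duplicates.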

NC(=O)Cn1c(=O)cc(CCN2CCN(c3nccc4sccc34)CC2)c2ccc(F)cc21 [Trelanserin]
Conditions	LDH release cytotoxicity [%]
0.03162 µM	-2.76
0.1 µM	-2.72
0.3162278 µM	-2.6
1 µM	-2.79
3.16228 µM	-2.49
10 µM	-3.23
31.6228 µM	-3.19
100 µM	4.59

C=C(C)C(=O)OCCC(F)(F)C(F)(F)C(F)(F)C(F)(F)C(F)(F)C(F)(F)F [6:2 Fluorotelomer methacrylate]
Conditions	LDH release cytotoxicity [%]
0.03162 µM	-0.461
0.1 µM	0.735
0.3162278 µM	0.518
1 µM	-0.0542
3.16228 µM	0.38
10 µM	0.535
31.6228 µM	0.834
100 µM	1.55

CCCC(=O)OCC [Ethyl butyrate]
Conditions	LDH release cytotoxicity [%]
0.03162 µM	-2.73
0.1 µM	-1.76
0.3162278 µM	-1.67
1 µM	-2.36
3.16228 µM	-1.92
10 µM	-0.558
31.6228 µM	0.726
100 µM	0.69

CCc1ccc(C(=O)NN(C(=O)c2cc(C)cc(C)c2)C(C)(C)C)cc1 [Tebufenozide]
Conditions	LDH release cytotoxicity [%]
0.03162 µM	-0.939
0.1 µM	0.194
0.3162278 µM	-0.662
1 µM	-0.0494
3.16228 µM	-0.0064
10 µM	0.106
31.6228 µM	0.645
100 µM	11.3

CCCCN1C(=O)C(C(O)C2CCCCC2)NC(=O)C12CCN(Cc1ccc(Oc3ccc(C(=O)O)cc3)cc1)CC2 (configuration not stated) [Aplaviroc hydrochloride]
Conditions	LDH release cytotoxicity [%]
0.03162 µM	-1.85
0.1 µM	-1.71
0.3162278 µM	-3.23
1 µM	-2.439
3.16228 µM	-3.02
10 µM	0.0163
31.6228 µM	7.4
100 µM	27.4

COCCOCCOCCOC [Triethylene glycol dimethyl ether]
Conditions	LDH release cytotoxicity [%]
0.03162 µM	-0.0874
0.1 µM	-4.26
0.3162278 µM	-4.61
1 µM	-3.35
3.16228 µM	-3.81
10 µM	-3.38
31.6228 µM	-2.47
100 µM	1.14

CN(C)c1nc(=O)n(C2CCCCC2)c(=O)n1C [Hexazinone]
Conditions	LDH release cytotoxicity [%]
0.03162 µM	-1.77
0.1 µM	-1.77
0.3162278 µM	0.416
1 µM	-2.14
3.16228 µM	-0.406
10 µM	-0.642
31.6228 µM	-1.37
100 µM	0.813

CCCCCCCCCCCCN1CCCC1=O [1-Dodecyl-2-pyrrolidinone]
Conditions	LDH release cytotoxicity [%]
0.031623 µM	-0.38
0.1 µM	-0.917
0.316228 µM	-3
1 µM	-2.75
3.16228 µM	-3.37
10 µM	-2.86
31.6228 µM	-2.4
100 µM	0.295

CCCCCCCCOC(=O)c1ccccc1C(=O)OCCCCCCCC [Di-n-octyl phthalate]
Conditions	LDH release cytotoxicity [%]
0.03162 µM	-0.293
0.1 µM	-1.33
0.3162278 µM	-0.746
1 µM	-0.29
3.16228 µM	-1.1
10 µM	-0.705
31.6228 µM	-0.176
100 µM	5.1

CC12CCC3c4ccc(O)cc4CCC3C1CCC2O (stereo not drawn) [17beta-Estradiol]
Conditions	LDH release cytotoxicity [%]
0.01581 µM	-0.962
0.05 µM	-1.17
0.1581139 µM	-1.03
0.5 µM	-1.37
1.5811388 µM	-1.1
5 µM	-0.844
15.8114 µM	-0.113
50 µM	6.2

O=C(Oc1ccc(Br)cc1)N1CCN2CCC1CC2
Conditions	LDH release cytotoxicity [%]
0.03162 µM	-1.87
0.1 µM	-3.23
0.3162278 µM	-0.984
1 µM	-1.45
3.16228 µM	-1.43
10 µM	-1.29
31.6228 µM	-0.718
100 µM	0.972

CCCCOC(=O)c1ccc(O)cc1 [Butylparaben]
Conditions	LDH release cytotoxicity [%]
0.03162 µM	-1.57
0.1 µM	-1.1
0.3162278 µM	-1.42
1 µM	-2.15
3.16228 µM	-2.51
10 µM	-2.14
31.6228 µM	-2.11
100 µM	-0.69

Cc1cn(C2CC(N=[N+]=[N-])C(CO)O2)c(=O)nc1O (configuration not stated) [3'-Azido-3'-deoxythymidine]
Conditions	LDH release cytotoxicity [%]
0.03162 µM	-0.42
0.1 µM	-0.0584
0.3162278 µM	-1.1
1 µM	-0.757
3.16228 µM	-0.57
10 µM	-0.541
31.6228 µM	-0.814
100 µM	-0.709

CCCCOC(=O)c1ccccc1C(=O)OCc1ccccc1 [Benzyl butyl phthalate]
Conditions	LDH release cytotoxicity [%]
0.03162 µM	-0.944
0.1 µM	-1.99
0.3162278 µM	-1.76
1 µM	-1.14
3.16228 µM	-1.707
10 µM	-2.01
31.6228 µM	-0.748
100 µM	0.329

CC(C)(O)C(=O)Nc1ccc([N+](=O)[O-])c(C(F)(F)F)c1 [Hydroxyflutamide]
Conditions	LDH release cytotoxicity [%]
0.01581 µM	-1.79
0.05 µM	-0.825
0.1581139 µM	-0.846
0.5 µM	-1.16
1.5811388 µM	-0.0206
5 µM	0.0482
15.8114 µM	-1.19
50 µM	2.46

O=C(O)C1C(C(=O)O)C2(Cl)C(Cl)=C(Cl)C1(Cl)C2(Cl)Cl (configuration not stated) [Chlorendic acid]
Conditions	LDH release cytotoxicity [%]
0.03162 µM	-0.458
0.1 µM	-0.878
0.3162278 µM	-1.72
1 µM	-1.15
3.16228 µM	-0.967
10 µM	-0.519
31.6228 µM	-0.436
100 µM	0.638

CCCSC(=O)N(CCC)CCC [Vernolate]
Conditions	LDH release cytotoxicity [%]
0.03162 µM	-0.794
0.1 µM	-0.827
0.3162278 µM	-0.738
1 µM	-2.07
3.16228 µM	-1.14
10 µM	-0.659
31.6228 µM	0.0809
100 µM	1.84

Cc1ccc(N)c(N)c1 [3,4-Diaminotoluene]
Conditions	LDH release cytotoxicity [%]
0.0317809 µM	-0.96
0.1005 µM	-0.403
0.317809 µM	-1.27
1.005 µM	-0.97
3.17809 µM	-0.641
10.05 µM	-0.448
31.7809 µM	-0.415
100.5 µM	0.704

CCCCC=O [Pentanal]
Conditions	LDH release cytotoxicity [%]
0.031623 µM	0.98
0.1 µM	-1.98
0.316228 µM	-0.995
1 µM	-1.67
3.16228 µM	-1.94
10 µM	-1.12
31.6228 µM	-1.6
100 µM	0.803
